Results reported in article PMC9351623 (Chem, 2022).

Assays:
TrxR1 [1] = biological target: T1, TrxR1 (Homo sapiens, UniProt Q16881); assay: Cellular quantitative HTS; assay type: cell-based; conditions: for pIC50 comparison between the two vinylsulfones: despite ca. 1.1 LogP difference; for activity in the cellular RX1 screen: hits classed up to 20 μM
T1 sequence (Q16881 1-499 isoform Q16881-5): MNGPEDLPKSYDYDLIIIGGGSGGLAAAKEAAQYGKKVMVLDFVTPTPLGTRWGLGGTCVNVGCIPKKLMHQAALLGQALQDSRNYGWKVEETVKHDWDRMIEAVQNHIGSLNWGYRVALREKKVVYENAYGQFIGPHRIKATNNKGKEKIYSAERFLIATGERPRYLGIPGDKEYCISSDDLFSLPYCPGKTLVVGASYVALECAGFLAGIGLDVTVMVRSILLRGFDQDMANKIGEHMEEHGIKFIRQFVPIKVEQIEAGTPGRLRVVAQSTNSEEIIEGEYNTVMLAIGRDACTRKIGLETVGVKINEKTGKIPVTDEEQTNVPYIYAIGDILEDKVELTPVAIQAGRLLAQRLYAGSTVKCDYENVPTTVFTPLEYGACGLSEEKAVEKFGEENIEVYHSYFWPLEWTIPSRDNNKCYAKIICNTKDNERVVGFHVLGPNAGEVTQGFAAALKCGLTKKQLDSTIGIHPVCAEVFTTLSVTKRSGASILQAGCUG

TrxR1 [2] = biological target: T1, TrxR1; conditions: cited from earlier work
TrxR = biological target: T2, TrxR (Homo sapiens, UniProt Q16881); assay: Cellular probe signal after chemical inhibition of TrxR; assay type: cell-based
T2 sequence (Q16881 1-499 isoform Q16881-5): T1 sequence (Q16881 1-499 isoform Q16881-5)

## O=C1CSC(=S)N1 [rhodanine]
TrxR1 [1]
  apparent potency relative to the reference inhibitor TRi-1: ≤ 3%

## Cc1ccc(S(=O)(=O)/C=C/C#N)cc1 [BAY 11–7082]
TrxR1 [1]
  pIC50 comparison between the two vinylsulfones: no change

## CC(=O)c1c(O)c(C)c(O)c(Cc2c(O)c3c(c(C(=O)/C=C/c4ccccc4)c2O)OC(C)(C)C=C3)c1O [rottlerin]
TrxR1 [1]
  apparent potency relative to the reference inhibitor TRi-1: ≤ 3%

## Oc1ccc2ccccc2c1SSc1c(O)ccc2ccccc12 [IPA-3]
TrxR1 [2]
  activity in the enzymatic (cell-free) TrxR screen: inactivity
TrxR1 [1]
  activity in the cellular RX1 screen: active

## COC[C@H]1OC(=O)c2coc3c2[C@@]1(C)C1=C(C3=O)[C@@H]2CCC(=O)[C@@]2(C)C[C@H]1OC(C)=O [wortmannin]
TrxR1 [2]
  activity in the enzymatic (cell-free) TrxR screen: activity
TrxR1 [1]
  activity in the cellular RX1 screen: inactive

## OC[C@H]1O[C@H]([S-])[C@H](O)[C@@H](O)[C@@H]1O.[Au+] [aurothioglucose]
TrxR1 [1]
  pIC50 (potency) lower than its ester prodrug auranofin: 10 fold

## CN(N=O)c1cc(O)ccc1O [Dephostatin]
TrxR1 [1]; cellular RX1 qHTS versus cell-free qHTS of ref 67
  potency loss in cells (ratio of cell-free to cellular potency): > 10 fold

## O=c1c(O)c(-c2cc(O)c(O)c(O)c2)oc2cc(O)cc(O)c12 [myricetin]
TrxR1 [1]
  apparent potency relative to the reference inhibitor TRi-1: ≤ 3%

## COc1ccc([N+](=O)[O-])c(S(=O)(=O)c2ccc(Cl)cc2)n1 [TRi-1]
TrxR
  effect of TrxR inhibitor on cellular RX1 signal: efficiently suppressed

## C=CCN1CCc2c(cc(O)c(O)c2Cl)C(c2ccccc2)C1 (centres unmarked) [chloro-APB]
TrxR1 [2]
  activity in the enzymatic (cell-free) TrxR screen: inactivity
TrxR1 [1]
  activity in the cellular RX1 screen: active

## CC(C)(C)c1ccc(S(=O)(=O)/C=C/C#N)cc1 [BAY 11–7085]
TrxR1 [1]
  pIC50 comparison between the two vinylsulfones: no change
